The values that follow come from patent publication US11827628B2, “Compositions and methods for inhibition of the JAK pathway” (Rigel Pharmaceuticals, Inc., priority 2005, dated 2023).

As a reminder, the pIC50 is the negative decadic logarithm of the IC50, by convention in mol/L.

SMILES strings stand for the structures. pIC50: −log10 of the molar value. Like-named read-outs stand apart in the source and are kept apart here.

Test [1] concerns up-regulation of ICAM-1 (CD54) by IFNγ in U937 human monocytic cells. Briefly: U937 IFNγ ICAM1 FACS Assay. The class given is cell-based. The following applies: U937 cells stimulated with IFNγ; ICAM-1 expression by FACS; read-out: IC50, Example 44. Put shortly:
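Readout was the geometric-mean APC anti-ICAM-1 signal by FACS on live U937 monocytic cells, with % live cells also recorded. Cells were exposed to compounds (8 points, 3-fold dilutions, duplicates) for 30 min at 37 °C before 18–24 h of IFNγ stimulation. EC50 values were computed from the dose curve.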
In general terms: In flow cytometry, cells or beads pass a laser one at a time.

Test [2] concerns IL-4 stimulated expression of CD23 in human Ramos B cells (JAK-1 and JAK-3). Briefly: Assay for Ramos B-Cell Line Stimulated with IL-4 (CD23 upregulation, FACS). The following applies: read-out: IC50, Example 41. The test is classed as cell-based. Put shortly:
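Steps: Ramos B cells are suspended in RPMI with 5% serum, exposed to compound for 1 h at 37 °C, stimulated with IL-4 (final 50 units/mL) for 20-24 h, stained for CD23 and analysed by flow cytometry. IC50 is calculated.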

The mark [3] stands for this setting: Ramos B-cell line stimulated with IL-4, CD23 expression by FACS.
[4] abbreviates: Ramos B cells stimulated with IL-4, CD23 expression by FACS.

For the compound `CC(Oc1ccc(Nc2nc(Nc3cccc(S(N)(=O)=O)c3)ncc2F)cc1)C(N)=O` (racemic) [Compound I-117, Racemic N4-[4-(1-Aminocarbonyl)ethoxy]phenyl-N2-(3-aminosulfonyl)phenyl-5-fluoro-2,4-pyrimidinediamine], the values for the negative logarithm of the IC50 (pIC50) in test [1] and in test [2] (setting [3]) were 4.84 and 6.45, respectively.
On the same counts, the results for `Cc1cc(Nc2nc(Nc3ccc(S(N)(=O)=O)cc3)ncc2F)ccc1OC(C)C(N)=O` (racemic) [Compound I-119, Racemic N4-[4-(1-Aminocarbonyl)ethoxy-3-methyl]phenyl-N2-(4-aminosulfonyl)phenyl-5-fluoro-2,4-pyrimidinediamine] are 4.92 and 6.68.
On the same counts, the results for `Cc1cc(Nc2nc(Nc3cccc(S(N)(=O)=O)c3)ncc2F)ccc1OC(C)C(N)=O` (racemic) [Compound I-120, Racemic N4-[4-(1-Aminocarbonyl)ethoxy-3-methyl]phenyl-N2-(3-aminosulfonyl)phenyl-5-fluoro-2,4-pyrimidinediamine] are 5.35 and 6.70.
On to `Cc1cc(Nc2nc(Nc3ccc(C)c(S(N)(=O)=O)c3)ncc2F)ccc1OC(C)C(N)=O` (racemic) [Compound I-121, Racemic N4-[4-(1-Aminocarbonyl)ethoxy-3-methyl]phenyl-N2-(3-aminosulfonyl-4-methyl)phenyl-5-fluoro-2,4-pyrimidinediamine], for which the values for the pIC50 in test [1] and in test [2] (setting [3]) were 5.53 and 6.74, respectively.
The corresponding values for `Cc1cc(Nc2nc(Nc3ccc(S(N)(=O)=O)cc3)ncc2F)cc(C)c1OC(C)C(N)=O` (racemic) [Compound I-122, Racemic N4-[4-(1-Aminocarbonyl)ethoxy-3,5-dimethyl]phenyl-N2-(4-aminosulfonyl)phenyl-5-fluoro-2,4-pyrimidinediamine] are 4.80 and 6.54.
The corresponding values for `Cc1cc(Nc2nc(Nc3cccc(S(N)(=O)=O)c3)ncc2F)cc(C)c1OC(C)C(N)=O` (racemic) [Compound I-123, Racemic N4-[4-(1-Aminocarbonyl)ethoxy-3,5-dimethyl]phenyl-N2-(3-aminosulfonyl)phenyl-5-fluoro-2,4-pyrimidinediamine] are 5.65 and 6.80.
The corresponding values for `Cc1ccc(Nc2ncc(F)c(Nc3cc(C)c(OC(C)C(N)=O)c(C)c3)n2)cc1S(N)(=O)=O` (racemic) [Compound I-124, Racemic N4-[4-(1-Aminocarbonyl)ethoxy-3,5-dimethyl]phenyl-N2-(3-aminosulfonyl-4-methyl)phenyl-5-fluoro-2,4-pyrimidinediamine] are 5.88 and 6.99.
Take `Cc1ccc(Nc2ncc(F)c(Nc3ccc4c(c3)CC(C(=O)N(C)C)O4)n2)cc1S(N)(=O)=O` (racemic) [VII-26, Racemic N2-(3-Aminosulfonyl-4-methylphenyl)-N4-[2-(N,N-dimethylaminocarbonyl)-2,3-dihydrobenzofuran-5-yl]-5-fluoro-2,4-pyrimidinediamine]: the values for the negative-log IC50 (pIC50) in test [1] and in test [2] (setting [4]) were 5.03 and 6.26, respectively.
The corresponding values for `CN(C)C(=O)C1Cc2cc(Nc3nc(Nc4ccc(Cl)c(S(N)(=O)=O)c4)ncc3F)ccc2O1` (racemic) [VII-27, Racemic N2-(3-Aminosulfonyl-4-chlorophenyl)-N4-[2-(N,N-dimethylaminocarbonyl)-2,3-dihydrobenzofuran-5-yl]-5-fluoro-2,4-pyrimidinediamine] are 5.20 and 6.38.
With `CC(C)c1ccc(Nc2ncc(F)c(Nc3ccc(OCC#N)cc3)n2)cc1S(N)(=O)=O` [Compound I-8, N2-(3-Aminosulfonyl-4-iso-propylphenyl)-N4-(4-cyanomethyleneoxyphenyl)-5-fluoro-2,4-pyrimidinediamine], the negative logarithm of the IC50 (pIC50) was 6.39 in test [1] and 7.23 in test [2] (setting [3]).
On the same counts, the results for `CN1CCN(c2ccc(Nc3ncc(F)c(Nc4ccc(OCC#N)cc4)n3)cc2S(N)(=O)=O)CC1` [Compound I-9, N2-[3-Aminosulfonyl-4-(4-methylpiperazin-1-yl)phenyl]-5-fluoro-N4-(4-cyanomethyleneoxyphenyl)-2,4-pyrimidinediamine] are 6.10 and 6.63.
The corresponding values for `CN1CCN(c2ccc(Nc3ncc(F)c(Nc4ccc(OCC#N)c(F)c4)n3)cc2S(N)(=O)=O)CC1` [Compound I-10, N2-[3-Aminosulfonyl-4-(4-methylpiperazine-1-yl)phenyl]-5-fluoro-N4-(4-cyanomethyleneoxy-3-fluorophenyl)-2,4-pyrimidinediamine] are 6.58 and 7.59.
On the same counts, the results for `Cc1ccc(Nc2ncc(F)c(Nc3ccc(OCC#N)c(F)c3)n2)cc1S(N)(=O)=O` [Compound I-11, N2-(3-Aminosulfonyl-4-methylphenyl)-5-fluoro-N4-(4-cyanomethyleneoxy-3-fluorophenyl)-2,4-pyrimidinediamine] are 6.48 and 7.63.
In the case of `N#CCOc1ccc(Nc2nc(Nc3cccc(S(N)(=O)=O)c3)ncc2F)cc1F` [Compound I-12, N2-(3-Aminosulfonylphenyl)-5-fluoro-N4-(4-cyanomethyleneoxy-3-fluorophenyl)-2,4-pyrimidinediamine], the pIC50 in test [1] is 6.65; in test [2] (setting [3]), 7.43.
The corresponding values for `N#CCOc1ccc(Nc2nc(Nc3cccc(S(N)(=O)=O)c3)ncc2Br)cc1` [Compound I-13, N2-(3-Aminosulfonylphenyl)-5-bromo-N4-(4-cyanomethyleneoxyphenyl)-2,4-pyrimidinediamine] are 7.36 and 8.20.
Turning to `Cc1ccc(Nc2ncc(Br)c(Nc3ccc(OCC#N)cc3)n2)cc1S(N)(=O)=O` [Compound I-14, N2-(3-Aminosulfonyl-4-methylphenyl)-5-bromo-N4-(4-cyanomethyleneoxyphenyl)-2,4-pyrimidinediamine], the results for the pIC50 in test [1] and in test [2] (setting [3]) were 7.38 and 7.89, respectively.
The corresponding values for `C[Si](C)(C)C#Cc1cnc(Nc2cccc(S(N)(=O)=O)c2)nc1Nc1ccc(OCC#N)cc1` [Compound I-15, N2-(3-Aminosulfonylphenyl)-N4-(4-cyanomethyleneoxyphenyl)-5-trimethylsilylacetylene-2,4-pyrimidinediamine] are 5.30 and 6.51.
On the same counts, the results for `Cc1ccc(Nc2ncc(F)c(Nc3cc(C)c(OCC(N)=O)c(C)c3)n2)cc1S(N)(=O)=O` [Compound I-96, N4-(4-Aminocarbonylmethoxy-3,5-dimethyl)phenyl-N2-(3-aminosulfonyl-4-methyl)phenyl-5-fluoro-2,4-pyrimidinediamine] are 5.48 and 6.88.
Turning to `Cc1cc(Nc2nc(Nc3ccc(S(N)(=O)=O)cc3)ncc2F)ccc1OCC(N)=O` [Compound I-113, N4-(4-Aminocarbonylmethoxy-3-methyl)phenyl-N2-(4-aminosulfonyl)phenyl-5-fluoro-2,4-pyrimidinediamine], the negative-log IC50 (pIC50) is 4.87 in test [1] and 6.78 in test [2] (setting [3]).
Take `Cc1ccc(Nc2ncc(F)c(Nc3ccc(OC(C)C(N)=O)cc3)n2)cc1S(N)(=O)=O` (stereo not shown) [Compound I-118, N4-[4-(1-Aminocarbonyl)ethoxy]phenyl-N2-(3-aminosulfonyl-4-methyl)phenyl-5-fluoro-2,4-pyrimidinediamine]: the pIC50 in test [1] was 5.62; in test [2] (setting [3]), 6.53.
The corresponding values for `CC(C)(Oc1ccc(Nc2nc(Nc3cccc(S(N)(=O)=O)c3)ncc2F)cc1)C(N)=O` [Compound I-126, N4-[4-(1-Aminocarbonyl-1-methyl)ethoxy]phenyl-N2-(3-aminosulfonyl)phenyl-5-fluoro-2,4-pyrimidinediamine] are 5.14 and 6.45.
On the same counts, the results for `Cc1ccc(Nc2ncc(F)c(Nc3ccc(OC(C)(C)C(N)=O)cc3)n2)cc1S(N)(=O)=O` [Compound I-127, N4-[4-(1-Aminocarbonyl-1-methyl)ethoxy]phenyl-N2-(3-aminosulfonyl-4-methyl)phenyl-5-fluoro-2,4-pyrimidinediamine] are 5.60 and 6.63.
In the case of `Cc1ccc(Nc2ncc(F)c(Nc3ccc(OCc4ccncc4)cc3)n2)cc1S(N)(=O)=O` [Compound I-194, N2-(3-Aminosulfonyl-4-methylphenyl)-5-fluoro-N4-[4-(4-pyridinyl)methyleneoxyphenyl]-2,4-pyrimidinediamine], the pIC50 in test [2] (setting [3]) was 7.54.
The same measure, in the same setting: then `Cc1ccc(Nc2nc(Nc3ccc(S(N)(=O)=O)cc3)ncc2F)cc1OCC(=O)N1CCOCC1` [Compound I-209, N2-(4-Aminosulfonylphenyl)-5-fluoro-N4-[4-methyl-3-(2-morpholinocarbonylmethyleneoxy)phenyl]-2,4-pyrimidinediamine], with 6.24.
Take `N#CCn1ccc2cc(Nc3nc(Nc4ccc(S(N)(=O)=O)cc4)ncc3F)ccc21` [IX-6, N2-(4-Aminosulfonylphenyl)-N4-(1-cyanomethyleneindol-5-yl)-5-fluoro-2,4-pyrimidinediamine]: the pIC50 in test [2] (setting [4]) was 7.08.
On the same count and under the same terms, then `C#CCOc1ccc(Nc2nc(Nc3ccc(C)c(S(=O)(=O)NC4CCN(C)CC4)c3)ncc2F)cc1` [VI-69, 5-Fluoro-N2-{[4-methyl-3-((1-methylpiperidin-4-yl)aminosulfonyl)]phenyl} N4-[4-(prop-2-ynyloxy)phenyl]-2,4-pyrimidinediamine], with 6.71; and `NC1CCOc2ccc(Nc3nc(Nc4cccc(S(N)(=O)=O)c4)ncc3F)cc21` (stereo not shown) [VII-28, N2-(3-Aminosulfonylphenyl)-N4-(chroman-4-amine-6-yl)-5-fluoro-2,4-pyrimidinediamine], with 7.44.
